Patent publication US10980824B2, “Pharmaceutical composition comprising quercetin-3-O-β-D-xylopyranoside for preventing or treating liver disease” (Hongcheon Institute of Medical Herb, priority 2016, dated 2021)

Key:
Assay type in all cases: in vivo, C57BL/6N mice
[1] = Body weight, feed intake and excised organ weight of alcoholic steatosis-induced mice; conditions: 1 mg/kg oral 10 days; conclusion from body and organ weights
Procedure: (§1) 8-week-old C57BL/6N mice were purchased from DAEHAN BIOLINK to be used for efficacy evaluation and quarantined and acclimated in a vivarium of HONGCHEON INSTITUTE OF MEDICAL HERB for 7 days (relative temperature: 23±2° C., relative humidity: 50±5%, and a 12 h light-dark cycle) prior to the start of experimentation. Among them, 18 male mice with no abnormal symptoms were selected and used.
(§2) During a liquid diet adaptation period, a control group was restrictedly fed with a Lieber-DeCarli'82 control liquid diet (F1259SP, Bio-serv), and an alcohol-fed group was restrictedly fed with a Lieber-DeCarli'82 ethanol liquid diet (F1258SP, Bio-serv) using a Liquid diet feeding tube (9019, Bio-serv), and the diets were replaced with new ones at a preset time between 3 P.M. and 5 P.M.
(§3) After 5 days of the liquid diet adaptation period, the mice were orally administered with 1 mg/kg of quercetin-3-O-β-D-xylopyranoside (test substance) for 10 days and fed with a 5% alcohol liquid diet. At 11th day, between 7 A.M. and 9 A.M., a group not fed with alcohol (hereinafter referred to as Pair-fed group) was orally administered with a 45% maltose dextrin solution, and a group fed with a 5% liquid diet (hereinafter referred to as EtOH-fed) and a group administered with a test substance (hereinafter referred to as EtOH+B group) were orally fed with 31.5% ethanol.
2-1. […]

[2] = test system: alcoholic steatosis-induced mice; test: Fat accumulation in the liver (visual observation, H&E staining, Oil Red O staining); conditions: 1 mg/kg oral 10 days
Procedure: as §1, §2
as §3, with “ethanol. […]” for “ethanol.”

[3] = test system: alcoholic steatosis-induced mice; test: Concentrations of triglycerides in the blood and liver; conditions: 1 mg/kg oral 10 days; EtOH+B vs EtOH-fed (FIG. 7)
Procedure: as §1, §2
as §3, with “ethanol. […]” for “ethanol.”

[4] = test system: cytochrome P-450 2E1 (CYP2E1); test: Expression of cytochrome P-450 2E1 by tissue staining; conditions: liver tissue staining; 1 mg/kg oral 10 days; EtOH+B vs EtOH-fed (FIG. 8)
Procedure: as §1, §2
as §3, with “ethanol. […]” for “ethanol.”

[5] = test system: alcoholic steatosis-induced mice; test: Progression of hepatic fibrosis in reticular fibers by Gomori Reticulum staining; conditions: 1 mg/kg oral 10 days; EtOH+B vs EtOH-fed (FIG. 9)
Procedure: as §1, §2
as §3, with “ethanol. […]” for “ethanol.”

[6] = test system: alcoholic steatosis-induced mice; test: Biochemical analysis of ALT and AST levels; conditions: 1 mg/kg oral 10 days; EtOH+B vs EtOH-fed (FIG. 10)
Procedure: as §1, §2
as §3, with “ethanol. […]” for “ethanol.”

Fas gene = test: Real-time PCR of lipid metabolism gene expression in liver: Fas; conditions: liver mRNA, relative to Pair-fed group; EtOH+B group, 1 mg/kg oral 10 days (FIG. 11)
Procedure: as §1
as §2, with “5 P.M. […]” for “5 P.M.”
(§4) Real-time quantitative PCR was performed using a 7500 Real-time Thermal Cycler (Applied Biosystems, USA) with SYBR Green (Applied Biosystems, USA) to measure gene expression. […]
(§5) PCR amplification steps as described below were repeated for up to 40 cycles. […] Values were recorded after extension at every cycle.
(§6) After completion of all cycles, melting curve analysis was carried out to verify specificity of the primers. The results were analyzed using the One step system software v2.1 provided by Applied Biosystems.

ApoB gene = test: Real-time PCR of lipid metabolism gene expression in liver: ApoB; conditions: liver mRNA, relative to Pair-fed group; EtOH+B group, 1 mg/kg oral 10 days (FIG. 11)
Procedure: as §1
as §2, with “5 P.M. […]” for “5 P.M.”
as §4, §5, §6

Cd36 gene = test: Real-time PCR of lipid metabolism gene expression in liver: Cd36; conditions: liver mRNA, relative to Pair-fed group; EtOH+B group, 1 mg/kg oral 10 days (FIG. 11)
Procedure: as §1
as §2, with “5 P.M. […]” for “5 P.M.”
as §4, §5, §6

Fabp gene = test: Real-time PCR of lipid metabolism gene expression in liver: Fabp; conditions: liver mRNA, relative to Pair-fed group; EtOH+B group, 1 mg/kg oral 10 days (FIG. 11)
Procedure: as §1
as §2, with “5 P.M. […]” for “5 P.M.”
as §4, §5, §6

TNF-α = test: Inhibitory effect on TNF-α in alcoholic steatosis mice; conditions: liver tissue, vs alcohol-fed group (FIG. 12A)
Procedure: The level of TNF-α in liver tissue was measured by using RT-PCR and ELISA as described above in Example 2-7 to analyze whether the amount of TNF-α induced by alcohol was reduced due to treatment of quercetin-3-O-β-D-xylopyranoside.
A commercially available ELISA kit purchased from R&D Systems (Minneapolis, Minn.) was used.

adiponectin = test: Effect on recovering adiponectin in alcoholic steatosis mice; conditions: alcohol+compound group vs alcohol-fed group (FIG. 13)
Procedure: Adiponectin, which is a major anti-inflammatory agent, is an adipose tissue-derived adipokine. […] Thus, a plasma level of adiponectin was analyzed by ELISA to evaluate the effect of quercetin-3-O-β-D-xylopyranoside on regulation of the adiponectin content.
Specifically, the plasma level of adiponectin was analyzed by using RT-PCR and ELISA in the same manner as the measurement of the TNF-α level in liver tissue as described above in Example 2-8.

MCP-1 = test: mRNA level of MCP-1 by RT-PCR; conditions: alcohol+compound group vs alcohol-fed group (FIG. 14)
From the text: (§7) Monocyte chemoattractant protein 1 (MCP-1), called chemokine ligand 2 (CCL2), is one of the key chemokines that regulate pathogeneses of several diseases caused by monocyte infiltration. Meanwhile, interleukin 1 beta (IL1β), also known as a leukocytic endogenous mediator and a lymphocyte activating factor, is a member of the interleukin 1 family of cytokines. The cytokines are produced by activated macrophages at a damaged region of tissue.
(§8) Specifically, mRNA levels of MCP-1 and IL-1β were analyzed by using RT-PCR as described above in Example 2-8.

IL-1β = test: mRNA level of IL-1β by RT-PCR; conditions: alcohol+compound group vs alcohol-fed group (FIG. 14)
From the text: as §7, §8

[7] = test system: alcoholic steatosis-induced mice; test: Apoptosis in liver tissue by TUNEL assay; conditions: alcohol+compound group vs group fed with only alcohol (FIG. 15)
Procedure: DNA fragmentation characteristics of apoptosis were examined using a terminal deoxynucleotidyl transferase (TdT)-FragEL kit (Oncogene Research Products, San Diego, Calif.).
First, a tissue sample fixed in 4% paraformaldehyde was embedded in paraffin and sliced into 5 μm sections. Replicated sections were rehydrated and permeabilized with proteinase K (20 μg/mL) at 25° C. for 20 minutes. Subsequently, the sections were covered with 3% H2O2 for 5 minutes to inactivate endogenous peroxidase. After the sample was incubated in a TdT buffer solution (200 mM sodium-cacodylate, 30 mM Tris, 0.3 mg/mL BSA, 0.75 mM CoCl2, pH 6.6) for 5 minutes, slides were covered with TdT and biotinylated dUTP and incubated in a humidified chamber at 37° C. for 1.5 hours. Negative controls were incubated with biotinylated dUTP in a TdT buffer solution without enzyme. Reactions were terminated by adding a stop buffer (0.5 M EDTA, pH 8.0) thereto at room temperature for 5 minutes. After blocking with 4% BSA, the slides were incubated with a streptavidin-horseradish peroxidase conjugate for 30 minutes. Subsequently, the sections were incubated in DAB at room temperature for 12 minutes and counterstained with methyl green. Apoptotic cells were identified by stained properties and morphological criteria (cell contraction, chromatin condensation and/or margination, and apoptotic bodies).

p-AMPKα = test: Western blot of p-AMPKα in liver tissue
Procedure: (§9) Expression of p-AMPKα, p-ACC, and CPT-1, which regulate intrahepatic lipid metabolism, was analyzed by western blot analysis to understand the mechanism involved in pathogenesis of alcoholic steatosis in detail. The specific western blot analysis method is as follows.
(§10) First, a mouse liver homogenate was prepared by using a RIPA buffer solution including a protease and tyrosine phosphatase inhibitor cocktail (Sigma). Protein concentrations of lysates were determined using a Bicinchoninic (BCA) Protein Assay Kit (Thermo Scientific, IL, USA) according to the manufacturer's instructions. Isolated soluble proteins ([…]) were separated on an 8% to 15% SDS-polyacrylamide gel. The separated proteins were electroblotted on a nitrocellulose transfer membrane (Bio-Rad, Hercules, Calif., USA). The membrane was incubated with 5% non-fat dry milk for 1 hour and then probed for antigens using antibodies diluted to 1:1,000, and was incubated with anti-pAMPKα, anti-AMPKα, anti-PACC, anti-ACC, anti-CYP2E1, anti-CPT1a (Cell Signaling Technology), and anti-β-actin (Santa Cruz Biotechnology) at 4° C. for 18 hours. […] Band density was measured using ImageJ (National Institutes of Health, Bethesda, Md., USA) and expressed as a multiple relative to β-actin.

p-ACC = test: Western blot of p-ACC in liver tissue; conditions: compound group vs alcohol-fed group
Procedure: as §9, §10

CPT-1 = test: Western blot of CPT-1 in liver tissue; conditions: compound group vs alcohol-fed group
Procedure: as §9, §10

O=c1c(O[C@@H]2OC[C@@H](O)[C@H](O)[C@H]2O)c(-c2ccc(O)c(O)c2)oc2cc(O)cc(O)c12 [quercetin-3-O-β-D-xylopyranoside]
toxicity to mice and internal organs [1]: no toxicity
amount of lipid accumulated in the liver, dissection and visual observation ([2]; EtOH+B vs EtOH-fed (FIG. 5)): significantly reduced
amount of lipid droplets in the liver tissue, H&E and Oil Red O staining ([2]; EtOH+B vs EtOH-fed (FIG. 6)): significantly reduced
concentration of triglycerides in the blood [3]: significantly reduced
concentration of triglycerides in the liver [3]: significantly reduced
CYP2E1 expression level [4]: far lower
progression of hepatic fibrosis in reticular fibers [5]: suppressed
ALT level [6]: decreased
AST level [6]: decreased
expression level of the Fas gene (Fas gene): 1.1 times
expression level of the ApoB gene (ApoB gene): 0.8 times
expression level of the Cd36 gene (Cd36 gene): 0.98 times
expression level of the Fabp gene (Fabp gene): 0.7 times
expression level of RNA of TNF-α (TNF-α; 1 mg/kg): significantly inhibited
expression level of RNA of TNF-α (TNF-α; 10 mg/kg): significantly inhibited
plasma adiponectin level (adiponectin): significantly recovered
mRNA level of MCP-1 (MCP-1): significantly reduced
mRNA level of IL-1β (IL-1β): significantly reduced
degree of apoptosis in liver tissue [7]: significantly reduced
expression level of pAMPK (p-AMPKα; 10 mg/kg (FIGS. 16A and 16B)): significantly increased
expression levels of AMPK protein (p-AMPKα; among the groups (FIGS. 16A and 16B)): no difference
p-ACC level (p-ACC): significantly restored
CPT-1 level (CPT-1): significantly restored
